Patent US20240285625A1, “ERK1/2 AND KRAS G12C INHIBITORS COMBINATION THERAPY” (Erasca, Inc., priority 2021, published 2024)

Experiment: Body weight loss in the CO-04-0310 PDX study
Type: in vivo, Balb/c nude mice
Details: CO-04-0310 study; Compound 1 30 mg/kg/dose BID monotherapy; DietGel starting on treatment day 14
Protocol: Treatment started on the day after randomization. The treatment start day was denoted as treatment day 1. Mice were dosed by oral administration of vehicle control solution or monotherapy treatments of Compound 1 at 30 mg/kg/dose BID or sotorasib at 100 mg/kg QD. An additional group received combination treatment of Compound 1 at 30 mg/kg/dose BID or sotorasib at 100 mg/kg QD. BID was dosed at an 8-hour interval. In the combination group, sotorasib was dosed first and Compound 1 was dosed one hour later. In addition to regular food and water supply. DietGel (Ready Jelly R. 76A. Ready Biotechnology (ShenZhen) Co., Ltd.) was added in cages where at least two mice in a treatment group started showing >10% BWL at any measurement day. DietGel was supplied through the remaining study period after the addition of DietGel. Per this practice, mice in the Compound 1 at 30 mg/kg/dose BID monotherapy treatment group were supplied with DictGel food starting on treatment day 14. The study was terminated on treatment day 28 as defined in the study protocol.

## Cc1cnc(NC2CCOCC2)nc1-n1cnc(C(=O)N[C@H](CN)c2cc(F)cc(Cl)c2)c1 [Compound 1, (S)—N-(2-amino-1-(3-chloro-5-fluorophenyl)ethyl)-1-(5-methyl-2-((tetrahydro-2H-pyran-4-yl)amino)pyrimidin-4-yl)-1H-imidazole-4-carboxamide]
  BWL (at least two mice in treatment group; DietGel supplied): > 10%
